Values joined by “and” are separate entries in the source; they are usually repeats but may differ in a detail not shown here. Equal entries are not always repeated.
Experiments:
[1] = molecular target: Nucleosome-remodeling factor subunit BPTF (Homo sapiens) (UniProt Q12830); conditions: Compound concentration 10.0 uM, Protein concentration 2.0 uM
[2] = molecular target: Protein polybromo-1 (Homo sapiens) (UniProt Q86U86); conditions: Compound concentration 10.0 uM, Protein concentration 2.0 uM
[3] = molecular target: Bromodomain and WD repeat-containing protein 3 (Homo sapiens) (UniProt Q6RI45); conditions: Compound concentration 10.0 uM, Protein concentration 2.0 uM
[4] = molecular target: Nuclear body protein SP140 (Homo sapiens) (UniProt Q13342); conditions: Compound concentration 10.0 uM, Protein concentration 2.0 uM
[5] = molecular target: Bromodomain-containing protein 2 (Homo sapiens) (UniProt P25440); conditions: Compound concentration 10.0 uM, Protein concentration 2.0 uM
[6] = molecular target: Bromodomain adjacent to zinc finger domain protein 1A (Homo sapiens) (UniProt Q9NRL2); conditions: Compound concentration 10.0 uM, Protein concentration 2.0 uM
[7] = molecular target: Histone-lysine N-methyltransferase ASH1L (Homo sapiens) (UniProt Q9NR48); conditions: Compound concentration 10.0 uM, Protein concentration 2.0 uM
[8] = molecular target: Protein polybromo-1 (Homo sapiens) (UniProt Q86U86); conditions: Compound concentration 10.0 uM, Protein concentration 2.0 uM; remark: listed apart in the source
[9] = molecular target: Bromodomain-containing protein 2 (Homo sapiens) (UniProt P25440); conditions: Compound concentration 10.0 uM, Protein concentration 2.0 uM; remark: listed apart in the source
Peregrin (Homo sapiens) [10] = molecular target: Peregrin (Homo sapiens) (UniProt P55201); conditions: Compound concentration 10.0 uM, Protein concentration 2.0 uM
[11] = molecular target: Bromodomain-containing protein 9 (Homo sapiens) (UniProt Q9H8M2); conditions: Compound concentration 10.0 uM, Protein concentration 2.0 uM
[12] = molecular target: Histone acetyltransferase p300 (Homo sapiens) (UniProt Q09472); conditions: Compound concentration 10.0 uM, Protein concentration 2.0 uM
[13] = molecular target: Transcription intermediary factor 1-alpha (Homo sapiens) (UniProt O15164); assay: Thermal Shift Assay. Domain start/stop: N790-P971; conditions: Compound concentration 10.0 uM, Protein concentration 2.0 uM
[14] = molecular target: Protein polybromo-1 (Homo sapiens) (UniProt Q86U86); conditions: Compound concentration 10.0 uM, Protein concentration 2.0 uM; remark: listed apart in the source
[15] = molecular target: Histone acetyltransferase KAT2B (Homo sapiens) (UniProt Q92831); conditions: Compound concentration 10.0 uM, Protein concentration 2.0 uM
[16] = molecular target: Nuclear body protein SP140-like protein (Homo sapiens) (UniProt Q9H930); conditions: Compound concentration 10.0 uM, Protein concentration 2.0 uM
[17] = molecular target: T1, E3 ubiquitin-protein ligase TRIM33 (Homo sapiens) (UniProt Q9UPN9); conditions: Compound concentration […], Protein concentration 200.0 uM
T1 sequence (whole entry): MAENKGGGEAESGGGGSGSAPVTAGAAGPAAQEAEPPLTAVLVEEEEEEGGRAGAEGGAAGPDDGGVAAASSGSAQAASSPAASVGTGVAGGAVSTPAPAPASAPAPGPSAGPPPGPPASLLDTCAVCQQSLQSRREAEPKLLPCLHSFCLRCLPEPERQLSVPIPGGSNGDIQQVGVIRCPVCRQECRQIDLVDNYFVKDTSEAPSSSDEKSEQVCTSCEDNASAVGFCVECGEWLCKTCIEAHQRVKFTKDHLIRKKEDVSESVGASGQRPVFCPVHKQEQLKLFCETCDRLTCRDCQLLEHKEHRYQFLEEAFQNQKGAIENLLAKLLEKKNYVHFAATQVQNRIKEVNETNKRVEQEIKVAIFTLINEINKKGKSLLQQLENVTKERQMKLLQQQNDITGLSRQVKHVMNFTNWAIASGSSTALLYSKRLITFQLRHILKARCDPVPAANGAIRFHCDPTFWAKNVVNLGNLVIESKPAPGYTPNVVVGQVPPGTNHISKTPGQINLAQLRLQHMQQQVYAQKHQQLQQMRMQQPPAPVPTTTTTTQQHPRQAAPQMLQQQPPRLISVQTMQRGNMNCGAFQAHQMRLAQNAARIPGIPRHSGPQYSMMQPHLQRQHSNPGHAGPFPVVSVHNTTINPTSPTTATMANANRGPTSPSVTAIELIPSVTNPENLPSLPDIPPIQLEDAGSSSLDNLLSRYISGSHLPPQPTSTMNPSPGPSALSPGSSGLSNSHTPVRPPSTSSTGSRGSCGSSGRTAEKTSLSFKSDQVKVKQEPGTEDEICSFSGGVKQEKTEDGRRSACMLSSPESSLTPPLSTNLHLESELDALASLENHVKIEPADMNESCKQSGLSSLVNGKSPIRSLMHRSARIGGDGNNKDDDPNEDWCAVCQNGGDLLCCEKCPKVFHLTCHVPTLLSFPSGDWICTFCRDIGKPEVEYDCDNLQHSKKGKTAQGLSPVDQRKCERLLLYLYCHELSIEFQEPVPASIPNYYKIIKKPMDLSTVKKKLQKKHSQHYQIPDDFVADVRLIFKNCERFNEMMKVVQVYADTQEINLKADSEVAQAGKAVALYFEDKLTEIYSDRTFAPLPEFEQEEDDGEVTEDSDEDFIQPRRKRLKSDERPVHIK

[18] = molecular target: SWI/SNF-related matrix-associated actin-dependent regulator of chromatin subfamily A member 4 (Homo sapiens) (UniProt P51532); conditions: Compound concentration 10.0 uM, Protein concentration 2.0 uM
[19] = molecular target: Bromodomain-containing protein 1 (Homo sapiens) (UniProt O95696); conditions: Compound concentration 10.0 uM, Protein concentration 2.0 uM
[20] = molecular target: T1, E3 ubiquitin-protein ligase TRIM33 (Homo sapiens); assay: Thermal Shift Assay. Domain start/stop: D882-P1073; conditions: Compound concentration 10.0 uM
[21] = molecular target: Tyrosine-protein kinase BAZ1B (Homo sapiens) (UniProt Q9UIG0); conditions: Compound concentration 10.0 uM, Protein concentration 2.0 uM
[22] = molecular target: Transcription intermediary factor 1-beta (Homo sapiens) (UniProt Q13263); conditions: Compound concentration 10.0 uM, Protein concentration 2.0 uM
[23] = molecular target: Transcription initiation factor TFIID subunit 1 (Homo sapiens) (UniProt P21675); conditions: Compound concentration 10.0 uM, Protein concentration 2.0 uM
[24] = molecular target: Histone acetyltransferase KAT2A (Homo sapiens) (UniProt Q92830); conditions: Compound concentration 10.0 uM, Protein concentration 2.0 uM
[25] = molecular target: Bromodomain testis-specific protein (Homo sapiens) (UniProt Q58F21); conditions: Compound concentration 10.0 uM, Protein concentration 2.0 uM
[26] = molecular target: Histone-lysine N-methyltransferase 2A (Homo sapiens) (UniProt Q03164); conditions: Compound concentration 10.0 uM, Protein concentration 2.0 uM
[27] = molecular target: Chromatin remodeling regulator CECR2 (Homo sapiens) (UniProt Q9BXF3); conditions: Compound concentration 10.0 uM, Protein concentration 2.0 uM
[28] = molecular target: Transcription initiation factor TFIID subunit 1-like (Homo sapiens) (UniProt Q8IZX4); conditions: Compound concentration 10.0 uM, Protein concentration 2.0 uM
[29] = molecular target: Bromodomain testis-specific protein (Homo sapiens) (UniProt Q58F21); conditions: Compound concentration 10.0 uM, Protein concentration 2.0 uM; remark: listed apart in the source
[30] = molecular target: Bromodomain adjacent to zinc finger domain protein 2A (Homo sapiens) (UniProt Q9UIF9); conditions: Compound concentration 10.0 uM, Protein concentration 2.0 uM
[31] = molecular target: ATPase family AAA domain-containing protein 2 (Homo sapiens) (UniProt Q6PL18); conditions: Compound concentration 10.0 uM, Protein concentration 2.0 uM
[32] = molecular target: Protein polybromo-1 (Homo sapiens) (UniProt Q86U86); conditions: Compound concentration 10.0 uM, Protein concentration 2.0 uM; remark: listed apart in the source
[33] = molecular target: Bromodomain-containing protein 3 (Homo sapiens) (UniProt Q15059); conditions: Compound concentration 10.0 uM, Protein concentration 2.0 uM
Peregrin (Homo sapiens) [34] = molecular target: Peregrin (Homo sapiens) (UniProt P55201); conditions: Compound concentration 10.0 uM, Protein concentration 2.0 uM; remark: listed apart in the source
[35] = molecular target: ATPase family AAA domain-containing protein 2B (Homo sapiens) (UniProt Q9ULI0); conditions: Compound concentration 10.0 uM, Protein concentration 2.0 uM
[36] = molecular target: Transcription initiation factor TFIID subunit 1-like (Homo sapiens) (UniProt Q8IZX4); conditions: Compound concentration 10.0 uM, Protein concentration 2.0 uM; remark: listed apart in the source
[37] = molecular target: Transcription initiation factor TFIID subunit 1 (Homo sapiens) (UniProt P21675); conditions: Compound concentration 10.0 uM, Protein concentration 2.0 uM; remark: listed apart in the source
[38] = molecular target: Transcription intermediary factor 1-alpha (Homo sapiens) (UniProt O15164); conditions: Compound concentration 10.0 uM, Protein concentration 2.0 uM
[39] = molecular target: Bromodomain adjacent to zinc finger domain protein 2B (Homo sapiens) (UniProt Q9UIF8); conditions: Compound concentration 10.0 uM, Protein concentration 2.0 uM
[40] = molecular target: Bromodomain-containing protein 7 (Homo sapiens) (UniProt Q9NPI1); conditions: Compound concentration 10.0 uM, Protein concentration 2.0 uM
[41] = molecular target: Bromodomain and PHD finger-containing protein 3 (Homo sapiens) (UniProt Q9ULD4); conditions: Compound concentration 10.0 uM, Protein concentration 2.0 uM
[42] = molecular target: Protein polybromo-1 (Homo sapiens) (UniProt Q86U86); conditions: Compound concentration 10.0 uM, Protein concentration 2.0 uM; remark: listed apart in the source
[43] = molecular target: CREB-binding protein (Homo sapiens) (UniProt Q92793); conditions: Compound concentration 10.0 uM, Protein concentration 2.0 uM
[44] = molecular target: Bromodomain-containing protein 4 (Homo sapiens) (UniProt O60885); conditions: Compound concentration 10.0 uM, Protein concentration 2.0 uM
[45] = molecular target: Bromodomain-containing protein 1 (Homo sapiens, UniProt O95696)
[46] = molecular target: Bromodomain-containing protein 3 (Homo sapiens) (UniProt Q15059); conditions: Compound concentration 10.0 uM, Protein concentration 2.0 uM; remark: listed apart in the source
[47] = molecular target: SWI/SNF-related matrix-associated actin-dependent regulator of chromatin subfamily A member 2 (Homo sapiens) (UniProt P51531); conditions: Compound concentration 10.0 uM, Protein concentration 2.0 uM
[48] = molecular target: Bromodomain and WD repeat-containing protein 1 (Homo sapiens) (UniProt Q9NSI6); conditions: Compound concentration 10.0 uM, Protein concentration 2.0 uM
[49] = molecular target: PH-interacting protein (Homo sapiens) (UniProt Q8WWQ0); conditions: Compound concentration 10.0 uM, Protein concentration 2.0 uM
[50] = molecular target: Chromatin remodeling regulator CECR2 (Homo sapiens) (UniProt Q9BXF3); conditions: Compound concentration 10.0 uM, Protein concentration 2.0 uM; remark: listed apart in the source
[51] = molecular target: Protein polybromo-1 (Homo sapiens) (UniProt Q86U86); conditions: Compound concentration 10.0 uM, Protein concentration 2.0 uM; remark: listed apart in the source

Sequence of Protein polybromo-1 (Homo sapiens) (Q86U86 whole entry): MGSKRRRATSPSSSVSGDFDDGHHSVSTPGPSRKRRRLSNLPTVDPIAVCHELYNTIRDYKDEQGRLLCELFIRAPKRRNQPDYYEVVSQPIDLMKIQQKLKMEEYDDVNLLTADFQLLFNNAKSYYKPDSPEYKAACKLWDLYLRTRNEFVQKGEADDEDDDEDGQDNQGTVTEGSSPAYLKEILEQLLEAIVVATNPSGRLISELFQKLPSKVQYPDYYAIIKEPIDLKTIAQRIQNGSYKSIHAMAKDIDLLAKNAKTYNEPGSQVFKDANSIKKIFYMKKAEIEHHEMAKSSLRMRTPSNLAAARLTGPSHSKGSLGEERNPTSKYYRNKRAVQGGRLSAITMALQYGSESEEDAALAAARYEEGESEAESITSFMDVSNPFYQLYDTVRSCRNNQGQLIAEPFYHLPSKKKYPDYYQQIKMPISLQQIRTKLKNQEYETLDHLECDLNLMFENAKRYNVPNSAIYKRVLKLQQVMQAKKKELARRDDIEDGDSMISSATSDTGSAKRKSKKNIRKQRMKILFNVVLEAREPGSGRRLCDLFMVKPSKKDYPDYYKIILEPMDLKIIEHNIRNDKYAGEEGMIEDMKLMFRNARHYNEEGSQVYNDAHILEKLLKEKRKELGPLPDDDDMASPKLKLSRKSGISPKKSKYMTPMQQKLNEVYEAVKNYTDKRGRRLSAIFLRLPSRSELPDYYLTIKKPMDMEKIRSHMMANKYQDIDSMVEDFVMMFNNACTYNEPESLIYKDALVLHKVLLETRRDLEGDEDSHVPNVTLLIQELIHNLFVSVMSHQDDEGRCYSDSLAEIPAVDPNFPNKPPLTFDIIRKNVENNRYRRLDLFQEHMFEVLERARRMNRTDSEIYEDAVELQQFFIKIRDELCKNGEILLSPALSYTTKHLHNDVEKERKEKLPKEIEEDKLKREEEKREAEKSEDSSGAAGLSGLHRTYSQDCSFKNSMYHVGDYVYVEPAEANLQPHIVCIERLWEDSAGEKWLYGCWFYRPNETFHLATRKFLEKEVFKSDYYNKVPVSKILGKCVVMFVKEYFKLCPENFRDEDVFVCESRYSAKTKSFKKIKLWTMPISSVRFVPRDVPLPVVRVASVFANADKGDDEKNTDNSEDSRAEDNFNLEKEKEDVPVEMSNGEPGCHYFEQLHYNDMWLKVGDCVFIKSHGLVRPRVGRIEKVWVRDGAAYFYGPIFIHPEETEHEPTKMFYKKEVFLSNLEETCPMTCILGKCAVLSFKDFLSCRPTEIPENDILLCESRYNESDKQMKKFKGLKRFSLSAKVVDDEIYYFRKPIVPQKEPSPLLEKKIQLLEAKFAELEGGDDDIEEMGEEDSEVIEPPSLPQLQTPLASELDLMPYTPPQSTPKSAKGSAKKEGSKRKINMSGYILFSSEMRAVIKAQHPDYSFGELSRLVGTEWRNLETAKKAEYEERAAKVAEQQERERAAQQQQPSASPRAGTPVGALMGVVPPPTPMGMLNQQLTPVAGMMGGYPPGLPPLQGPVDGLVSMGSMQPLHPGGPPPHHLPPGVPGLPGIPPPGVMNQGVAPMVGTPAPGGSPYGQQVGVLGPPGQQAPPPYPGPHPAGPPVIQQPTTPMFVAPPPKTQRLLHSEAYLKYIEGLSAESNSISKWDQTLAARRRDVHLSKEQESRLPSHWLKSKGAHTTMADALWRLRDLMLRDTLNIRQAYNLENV
Sequence of Peregrin (Homo sapiens) (P55201 whole entry, the tested form may be a part): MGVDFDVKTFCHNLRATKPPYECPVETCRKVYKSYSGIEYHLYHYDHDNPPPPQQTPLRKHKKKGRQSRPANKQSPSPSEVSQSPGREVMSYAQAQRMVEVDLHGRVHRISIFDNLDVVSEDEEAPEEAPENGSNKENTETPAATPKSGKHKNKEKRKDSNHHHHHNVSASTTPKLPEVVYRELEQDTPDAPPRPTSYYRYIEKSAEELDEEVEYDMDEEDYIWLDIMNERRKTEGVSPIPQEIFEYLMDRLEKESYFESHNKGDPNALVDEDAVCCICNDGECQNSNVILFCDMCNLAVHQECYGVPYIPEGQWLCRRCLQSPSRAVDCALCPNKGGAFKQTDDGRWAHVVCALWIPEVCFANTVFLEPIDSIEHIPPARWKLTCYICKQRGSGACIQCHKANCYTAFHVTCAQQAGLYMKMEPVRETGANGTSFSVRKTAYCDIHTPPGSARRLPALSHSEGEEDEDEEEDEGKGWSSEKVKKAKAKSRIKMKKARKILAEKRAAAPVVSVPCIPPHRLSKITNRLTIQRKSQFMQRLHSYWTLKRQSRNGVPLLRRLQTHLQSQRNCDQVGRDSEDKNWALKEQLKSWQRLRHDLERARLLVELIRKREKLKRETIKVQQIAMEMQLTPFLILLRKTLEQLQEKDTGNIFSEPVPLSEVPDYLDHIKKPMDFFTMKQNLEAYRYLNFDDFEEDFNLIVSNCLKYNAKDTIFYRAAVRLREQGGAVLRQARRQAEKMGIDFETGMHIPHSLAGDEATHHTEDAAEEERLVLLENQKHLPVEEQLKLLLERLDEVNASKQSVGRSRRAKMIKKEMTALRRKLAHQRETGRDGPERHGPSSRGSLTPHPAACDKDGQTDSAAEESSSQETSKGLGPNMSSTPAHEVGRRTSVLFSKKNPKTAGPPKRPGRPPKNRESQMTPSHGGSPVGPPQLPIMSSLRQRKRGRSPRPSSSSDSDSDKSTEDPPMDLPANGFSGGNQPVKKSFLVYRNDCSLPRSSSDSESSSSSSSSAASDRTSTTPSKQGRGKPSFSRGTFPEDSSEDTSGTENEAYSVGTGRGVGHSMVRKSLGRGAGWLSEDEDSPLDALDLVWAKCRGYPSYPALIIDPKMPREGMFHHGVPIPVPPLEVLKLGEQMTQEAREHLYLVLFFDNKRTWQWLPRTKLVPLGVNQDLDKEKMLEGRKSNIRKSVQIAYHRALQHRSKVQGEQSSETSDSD
Sequence of Transcription initiation factor TFIID subunit 1-like (Homo sapiens) (Q8IZX4 whole entry): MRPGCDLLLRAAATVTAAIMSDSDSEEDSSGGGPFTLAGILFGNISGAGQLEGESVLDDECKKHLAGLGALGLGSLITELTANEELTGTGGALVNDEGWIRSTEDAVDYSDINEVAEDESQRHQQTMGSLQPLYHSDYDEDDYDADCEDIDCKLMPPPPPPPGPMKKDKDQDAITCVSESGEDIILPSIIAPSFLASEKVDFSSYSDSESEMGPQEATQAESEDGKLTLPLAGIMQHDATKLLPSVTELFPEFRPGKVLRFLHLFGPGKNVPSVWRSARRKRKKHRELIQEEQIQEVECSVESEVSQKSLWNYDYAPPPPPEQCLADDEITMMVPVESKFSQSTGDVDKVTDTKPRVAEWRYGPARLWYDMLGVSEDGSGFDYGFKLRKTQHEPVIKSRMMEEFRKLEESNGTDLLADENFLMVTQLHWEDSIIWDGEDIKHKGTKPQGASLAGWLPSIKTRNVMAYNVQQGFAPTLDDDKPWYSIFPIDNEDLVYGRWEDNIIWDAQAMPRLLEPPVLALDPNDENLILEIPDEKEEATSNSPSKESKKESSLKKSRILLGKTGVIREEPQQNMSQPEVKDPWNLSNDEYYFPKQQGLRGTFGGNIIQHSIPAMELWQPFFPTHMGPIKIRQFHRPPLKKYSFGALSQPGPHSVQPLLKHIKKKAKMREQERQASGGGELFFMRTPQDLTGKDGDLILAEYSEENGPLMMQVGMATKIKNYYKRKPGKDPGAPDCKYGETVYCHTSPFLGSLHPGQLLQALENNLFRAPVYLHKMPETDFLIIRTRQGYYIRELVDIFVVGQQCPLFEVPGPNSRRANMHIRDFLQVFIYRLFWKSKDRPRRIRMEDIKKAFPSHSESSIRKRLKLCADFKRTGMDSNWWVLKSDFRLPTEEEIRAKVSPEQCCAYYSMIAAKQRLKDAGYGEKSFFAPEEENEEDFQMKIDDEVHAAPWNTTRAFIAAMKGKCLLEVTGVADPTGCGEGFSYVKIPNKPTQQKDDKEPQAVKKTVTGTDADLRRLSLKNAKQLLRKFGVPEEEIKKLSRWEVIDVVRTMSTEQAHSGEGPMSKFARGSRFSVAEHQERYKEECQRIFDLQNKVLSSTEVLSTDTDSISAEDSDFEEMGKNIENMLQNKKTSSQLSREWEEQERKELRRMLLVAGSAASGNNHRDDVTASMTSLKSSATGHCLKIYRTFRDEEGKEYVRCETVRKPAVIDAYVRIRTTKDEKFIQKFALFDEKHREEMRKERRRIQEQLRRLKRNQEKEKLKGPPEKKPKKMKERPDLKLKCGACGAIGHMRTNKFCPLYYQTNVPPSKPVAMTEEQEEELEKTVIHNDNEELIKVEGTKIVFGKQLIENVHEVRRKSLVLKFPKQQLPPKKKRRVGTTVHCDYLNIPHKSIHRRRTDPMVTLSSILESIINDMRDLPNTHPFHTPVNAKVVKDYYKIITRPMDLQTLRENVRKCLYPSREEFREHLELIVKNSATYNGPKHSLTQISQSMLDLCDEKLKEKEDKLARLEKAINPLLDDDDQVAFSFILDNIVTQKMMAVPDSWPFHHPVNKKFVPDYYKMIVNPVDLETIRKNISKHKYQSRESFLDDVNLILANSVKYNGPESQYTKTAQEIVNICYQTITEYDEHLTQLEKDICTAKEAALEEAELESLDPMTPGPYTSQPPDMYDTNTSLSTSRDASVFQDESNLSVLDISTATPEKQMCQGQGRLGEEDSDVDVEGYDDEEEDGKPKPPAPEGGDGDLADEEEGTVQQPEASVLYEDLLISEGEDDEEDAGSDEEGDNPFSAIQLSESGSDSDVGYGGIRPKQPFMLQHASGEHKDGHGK

Question: Which results are given for `COc1cc2c(cc1NS(=O)(=O)c1ccc(Br)cc1C)n(C)c(=O)n2C`?
Answer: ΔTm [1]: 0.79 °C and 1.4 °C; ΔTm [2]: 0.5 °C; ΔTm [3]: 1.67 °C; ΔTm [4]: 0.32 °C; ΔTm [5]: 1.41 °C; ΔTm [6]: 1.07 °C; ΔTm [7]: 0.82 °C; ΔTm [8]: 0.28 °C; ΔTm [9]: 1.02 °C; ΔTm (Peregrin (Homo sapiens) [10]): 7.61 °C and 6.99 °C and 6.03 °C; ΔTm [11]: 1.48 °C; ΔTm [12]: 0.87 °C; ΔTm [13]: 0.91 °C; ΔTm [14]: 1.74 °C; ΔTm [15]: 0.53 °C; ΔTm [16]: 0.82 °C; inhibition [17]: 9.06%; ΔTm [18]: 0.35 °C; ΔTm [19]: 3.15 °C and 3.42 °C; ΔTm ([20]; Protein concentration 2.0 uM): -0.61 °C; ΔTm ([20]; Protein concentration […]): -0.23 °C; ΔTm [21]: 0.53 °C; ΔTm [22]: 0.37 °C; ΔTm [23]: 0.35 °C; ΔTm [24]: 0.57 °C; ΔTm [25]: 1.19 °C; ΔTm [26]: 0.64 °C; ΔTm [27]: 0.5 °C; ΔTm [28]: 0.36 °C; ΔTm [29]: 1.5 °C; ΔTm [30]: 0.47 °C; ΔTm [31]: 0.15 °C; ΔTm [32]: 0.53 °C; ΔTm [33]: 2.03 °C; ΔTm (Peregrin (Homo sapiens) [34]): 0.46 °C and 0.95 °C; ΔTm [35]: 0.21 °C; ΔTm [36]: -1.08 °C and 1.68 °C; ΔTm [37]: 0.36 °C and 0.33 °C; ΔTm [38]: 1.16 °C and 2.05 °C; ΔTm [39]: 1.14 °C; ΔTm [40]: 1.42 °C; ΔTm [41]: 1.85 °C and 3.4 °C; ΔTm [42]: 0.96 °C; ΔTm [43]: 1.22 °C and 1.19 °C; ΔTm [44]: 1.31 °C; IC50 [45]: 128 nM; ΔTm [46]: 1.93 °C; ΔTm [47]: 0.38 °C; ΔTm [48]: -0.9 °C and 1.4 °C; ΔTm [49]: 0.36 °C; ΔTm [50]: -0.25 °C; ΔTm [51]: 1.45 °C
